Several values for one entry are separate records, joined by “and”; a condition that tells them apart may be missing. Equal entries are not always repeated.

Results on four compounds are retold here after paper PMC11050087, “Polyphenols from Maackia amurensis Heartwood Protect Neuronal Cells from Oxidative Stress and Prevent Herpetic Infection” (International Journal of Molecular Sciences, 2024).

Assay [1] concerns 6-OHDA-treated Neuro-2a cells. Description: ROS analysis in 6-OHDA-treated cells (H2DCF-DA). In kind it is cell-based, murine. The following applies: 6-OHDA 120 µM; for reduction of ROS levels in 6-OHDA-treated Neuro-2a cells: compound 1 µM. The method, then:
We studied the effect of polyphenolic compounds set on ROS levels in 6-OHDA-treated Neuro-2a cells (Figure 5a–d).
Figure 5 The effect of polyphenolic compounds isolated from M. amurensis heartwood on ROS levels in Neuro-2a cells treated with 6-OHDA (120 μM) (a–d). Polyphenolic compounds isolated from M. amurensis heartwood were used at concentrations 10, 1, 0.1 μM. The data are presented as means ± SEM of three independent replicates.
After 24 h of adhesion, Neuro-2a cells (5 × 10^4 cells/mL) were incubated with polyphenolic compounds at concentrations of 0.1, 1, and 10 µM for 1 h. Then, 120 µM of 6-OHDA or 1 mM of PQ were added to each well, and cells were incubated for 1 h. To study the ROS formation, 20 µL of 2,7-dichlorodihydrofluorescein diacetate solution (H2DCF-DA, Sigma-Aldrich, St. Louis, MO, USA) were added to each well, so that the final concentration was 10 µM. Then, the microplate was incubated for 30 min at 37 °C.

Assay [2] has as its system HSV-1. Description: Virucidal activity, CPE inhibition assay (HSV-1 pretreated with compounds). The format is cell-based, HSV-1 strain L2. The following applies: for IC50: Human alphaherpesvirus 1, virus pretreated with compound (virucidal), Vero cells, 100 TCID50/mL; for SI: ratio of CC50 to IC50, virucidal scheme.
Assay [3] relates to HSV-1. Description: Virucidal activity, RT-PCR assay (HSV-1 pretreated with compounds). In kind it is cell-based, HSV-1 strain L2. The following applies: for Ct: 72 h; for −ΔCt: vs virus control; for activity at 0.1 µg/mL / activity at 1 µg/mL / activity at 10 µg/mL / log reduction at 0.1 µg/mL / log reduction at 1 µg/mL / log reduction at 10 µg/mL: Human alphaherpesvirus 1, 72 h; for activity at 0.1 µg/mL / activity at 1 µg/mL / activity at 10 µg/mL: read-out: 2^−ΔCt; for log reduction at 0.1 µg/mL / log reduction at 1 µg/mL / log reduction at 10 µg/mL: read-out: log10.

Broadly, the IC50 is the point on the concentration scale where inhibition reaches its midpoint. As for `Oc1ccc(/C=C/c2cc(O)cc3c2[C@H](c2cc(O)cc(O)c2)[C@@H](c2ccc(O)c(O)c2)O3)cc1` [Compound 13, scirpusin A], in assay [1], the “reduction of ROS levels in 6-OHDA-treated Neuro-2a cells” value (shortened to “reduction of ROS levels”) amounted to 43%. Further, the IC50 in the assay with HSV-1 [2] (CPE assay) is 2.6 µg/mL and 5.5 µM. Moreover, in the assay with HSV-1 [3] (0.1 µg/mL), the Ct is 18.6 ± 2.4 and the “−ΔCt” value is reported as −0.50 ± 0.05. Further, in the assay on HSV-1 [3] (1 µg/mL), the “inhibition of HSV-1 replication by RT-PCR (in words)” value is given as “inhibited the replication of HSV-1”, the Ct is given as 25.8 ± 3.3 and the “−ΔCt” value is −7.7 ± 0.8. In addition, in the assay with HSV-1 [3] (10 µg/mL), the “reduction in viral DNA” value came out at 3.9 log10, the Ct was found to be 31.2 ± 3.7 and the “−ΔCt” value is recorded as −13.1 ± 1.6. Besides, in the assay with HSV-1 [3], the activity at 0.1 µg/mL is 70.7 ± 9.2%, the activity at 1 µg/mL is 0.481 ± 0.06%, the activity at 10 µg/mL stood at 0.0114 ± 0.001% and the log reduction at 0.1 µg/mL was determined as 0.15 ± 0.02. Also, in the assay with HSV-1 [3], the log reduction at 1 µg/mL is 2.3 ± 0.3 and the log reduction at 10 µg/mL turned out to be 3.9 ± 0.5.

As to `O=C1C[C@@H](c2ccc(O)cc2)Oc2cc(O)ccc21` [Compound 6, liquiritigenin], in assay [1], the “reduction of ROS levels” value was 15%. Moreover, in assay [1] (compounds at 10, 1, 0.1 µM), the “effect on ROS levels in 6-OHDA-treated Neuro-2a cells (in words)” value was “dose-dependent effect”. In addition, in the assay with HSV-1 [2] (CPE assay, virus pretreated with compound), the “virucidal activity against HSV-1 (in words)” value is reported as “did not show virucidal activity”. For the same compound, the “virucidal activity against HSV-1 by RT-PCR (in words)” value in the assay on HSV-1 [3] (0.1, 1 and 10 µg/mL) is “did not demonstrate virucidal activity”.

In the case of `Oc1cc(O)cc(/C=C/c2ccc3c(c2)O[C@H](c2cc(O)cc(O)c2)[C@@H](c2ccc(O)c(O)c2)O3)c1` [Compound 9, maackin], the IC50 in the assay with HSV-1 [2] (CPE assay) is 2.4 µg/mL and 4.9 µM. The SI in the assay with HSV-1 [2] was 112.3 and 112.3 ± 13.5. Moreover, in the assay on HSV-1 [3] (0.1 µg/mL), the Ct came to 18.6 ± 2.4 and the “−ΔCt” value is given as −0.50 ± 0.05. For the same compound, in the assay on HSV-1 [3] (1 µg/mL), the “inhibition of HSV-1 replication by RT-PCR (in words)” value is recorded as “inhibited the replication of HSV-1”, the Ct amounted to 25.9 ± 2.8 and the “−ΔCt” value is recorded as −7.8 ± 0.9. Besides, in the assay on HSV-1 [3] (10 µg/mL), the “reduction in viral DNA” value is on record as 4.6 log10, the Ct is 33.3 ± 4.3 and the “−ΔCt” value is recorded as −15.2 ± 1.8. Further, in the assay on HSV-1 [3], the activity at 0.1 µg/mL amounted to 70.7 ± 9.2%, the activity at 1 µg/mL came to 0.449 ± 0.06%, the activity at 10 µg/mL came out at 0.00266 ± 0.0003% and the log reduction at 0.1 µg/mL came out at 0.15 ± 0.02. Moreover, in the assay with HSV-1 [3], the log reduction at 1 µg/mL was determined as 2.3 ± 0.3 and the log reduction at 10 µg/mL amounted to 4.6 ± 0.6.

Consider `Oc1ccc(/C=C/c2cc(O)cc(O)c2)cc1` [Compound 1, resveratrol], for which, in assay [1], the “reduction of ROS levels” value was “approximately 15%”. In addition, the IC50 in the assay with HSV-1 [2] (CPE assay) was 9.6 µg/mL and 42.1 µM. Moreover, the SI in the assay on HSV-1 [2] was 12.8 ± 1.9. In the assay on HSV-1 [3] (0.1 µg/mL), the Ct was 18.1 ± 2.2 and the “−ΔCt” value is reported as 0. Besides, in the assay with HSV-1 [3] (1 µg/mL), the Ct is 20.4 ± 2.8 and the “−ΔCt” value is recorded as −2.3 ± 0.2. For the same compound, in the assay with HSV-1 [3] (10 µg/mL), the “anti-HSV-1 activity by RT-PCR (in words)” value is given as “moderate anti-HSV-1 activity”, the Ct was 24.6 ± 2.9 and the “−ΔCt” value is −6.5 ± 0.8. Moreover, in the assay on HSV-1 [3], the activity at 0.1 µg/mL was 100%, the activity at 1 µg/mL was 20.3 ± 2.4%, the activity at 10 µg/mL was found to be 1.1 ± 0.14% and the log reduction at 0.1 µg/mL is 0. Moreover, in the assay on HSV-1 [3], the log reduction at 1 µg/mL was found to be 0.7 ± 0.09 and the log reduction at 10 µg/mL turned out to be 1.9 ± 0.2.
